From PubChem BioAssay (NCI)
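Five concentrations, 48 hours, 96-well plates. GI50: concentration for 50% inhibition of growth. At the TGI there is no net growth.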

Assays:
Experiment in all cases: growth of human tumour cells (NCI), 48 h
SN12C renal = test system: SN12C renal
786-0 renal = test system: 786-0 renal
KM12 colon = test system: KM12 colon
PC-3 prostate = test system: PC-3 prostate
HL-60(TB) leukemia = test system: HL-60(TB) leukemia
MALME-3M melanoma = test system: MALME-3M melanoma
UACC-62 melanoma = test system: UACC-62 melanoma
EKVX NSCLC = test system: EKVX NSCLC
TK-10 renal = test system: TK-10 renal
RXF 393 renal = test system: RXF 393 renal

Row | SMILES | TGI (SN12C renal) | TGI (786-0 renal) | TGI (KM12 colon) | TGI (PC-3 prostate) | GI50 (HL-60(TB) leukemia) | TGI (HL-60(TB) leukemia) | TGI (MALME-3M melanoma) | TGI (UACC-62 melanoma) | TGI (EKVX NSCLC) | TGI (TK-10 renal) | TGI (RXF 393 renal) | GI50 (SN12C renal) | GI50 (786-0 renal) | GI50 (KM12 colon) | GI50 (PC-3 prostate) | GI50 (MALME-3M melanoma) | GI50 (UACC-62 melanoma) | GI50 (EKVX NSCLC) | GI50 (TK-10 renal) | GI50 (RXF 393 renal)
1 | O=S(=O)(c1ccc(NC(=S)N/N=C/c2ccccc2O)cc1)N1CCCCC1 | 3.92 µM | 4.34 µM | 12.9 µM | 21.1 µM | 0.351 µM | 7.12 µM | 1.43 µM | 0.262 µM | 76.2 µM | 4.23 µM | > 100 µM | – | – | – | – | – | – | – | – | –
2 | O=C(c1cccs1)c1c(C(F)(F)F)n([O-])c2ccc(C(F)(F)F)cc2[n+]1=O | 0.468 µM | 0.339 µM | 0.774 µM | 0.259 µM | 0.145 µM | 0.526 µM | 1.21 µM | 1.08 µM | 0.529 µM | 1.31 µM | 0.387 µM | 0.195 µM | 0.188 µM | 0.295 µM | 0.118 µM | 0.552 µM | 0.34 µM | 0.241 µM | 0.596 µM | 0.195 µM
3 | O=c1c(Cl)nnc2sc3ccccc3n12 | > 100 µM | > 100 µM | > 100 µM | > 100 µM | 18.3 µM | > 100 µM | – | > 100 µM | > 100 µM | 90.7 µM | 81.9 µM | 24.6 µM | 64.7 µM | 32.3 µM | 47.8 µM | – | 40.8 µM | 24.2 µM | 8.15 µM | 27.8 µM
4 | CC12OC(C(=O)C13CC3)C1C(=O)c3ccccc3C(=O)C12 (centres undefined) | – | 37.6 µM | 52 µM | 52.9 µM | 26.8 µM | 81.6 µM | 87.1 µM | – | 38.4 µM | 58.8 µM | 24.9 µM | – | 18.2 µM | 19.9 µM | 19.8 µM | 27.9 µM | – | 4.48 µM | 22.8 µM | 10 µM
5 | COc1cc(-c2cc(C(=O)N3CCN(C(=O)c4ccccc4NCc4ccco4)CC3)nc3cc(-c4ccccc4)nn23)cc(OC)c1OC | > 100 µM | > 100 µM | > 100 µM | > 100 µM | 3.7 µM | 30.6 µM | > 100 µM | > 100 µM | > 100 µM | > 100 µM | 4.17 µM | 6.7 µM | 4.55 µM | 0.878 µM | 2.2 µM | 7.58 µM | 4.71 µM | 5.5 µM | 6.74 µM | 1.53 µM
6 | Cn1cc(-c2ccc(=O)n(Cc3cccc(-c4ncc(OCCN5CCOCC5)cn4)c3)n2)cn1 | > 100 µM | > 100 µM | > 100 µM | > 100 µM | 74.1 µM | > 100 µM | > 100 µM | > 100 µM | – | > 100 µM | > 100 µM | > 69.4 µM | > 100 µM | 52.2 µM | 49.1 µM | > 54.9 µM | 48.7 µM | – | 99 µM | > 75.4 µM
7 | CC(=O)c1ccc(Nc2cc(-n3ccnc3)nc3ccccc23)cc1 | > 100 µM | 41.3 µM | – | > 100 µM | – | – | 56.5 µM | 92.8 µM | > 100 µM | 63 µM | 76.8 µM | 45.8 µM | 7.86 µM | – | 20.5 µM | 15.4 µM | 19.2 µM | > 100 µM | 15.6 µM | 26 µM
